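A five-concentration, 48-hour dose response in 96-well plates underlies each endpoint, interpolated linearly between surrounding concentrations. At the TGI there is no net growth.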
Columns and labels:
Test in all cases: NCI tumour cell line growth inhibition, 48 h
MDA-N = test system: MDA-N
HOP-18 NSCLC = test system: HOP-18 NSCLC
DMS 273 small cell lung = test system: DMS 273 small cell lung
LXFL 529 NSCLC = test system: LXFL 529 NSCLC
DMS 114 small cell lung = test system: DMS 114 small cell lung
SN12K1 renal = test system: SN12K1 renal
XF 498 CNS = test system: XF 498 CNS
P388/ADR leukemia = test system: P388/ADR leukemia

O=C1Nc2ccc(Cl)cc2/C1=C\c1c(Cl)nc2sccn12
TGI (MDA-N): 8.42 µM

C[N+]1(CCCl)CC[N+](C)(CCCl)CC1 (stereo not given)
TGI (MDA-N): > 100 µM

CCOC(=O)CC1(c2cccc3ccccc23)OC(=O)c2ccccc21 (stereo not given)
TGI (HOP-18 NSCLC): > 100 µM
TGI (DMS 273 small cell lung): > 100 µM
TGI (LXFL 529 NSCLC): > 100 µM
TGI (DMS 114 small cell lung): > 100 µM

O=C(O)CC1NCc2cc3ccccc3nc21 (stereo not given)
TGI (MDA-N): > 100 µM

O=C(O)/C(Cc1ccc([N+](=O)[O-])cc1)=N\O
TGI (MDA-N): > 100 µM

CC(=O)NC1=C[C@@H]([C@H]2COC(C)(C)O2)OC1=O
TGI (HOP-18 NSCLC): > 100 µM
TGI (DMS 273 small cell lung): > 100 µM
TGI (SN12K1 renal): > 100 µM
TGI (XF 498 CNS): > 100 µM
TGI (P388/ADR leukemia): > 100 µM
TGI (DMS 114 small cell lung): > 100 µM

CC(C)C(N)=O
TGI (HOP-18 NSCLC): > 5000 µM
TGI (DMS 273 small cell lung): > 5000 µM
TGI (LXFL 529 NSCLC): > 5000 µM
TGI (DMS 114 small cell lung): > 5000 µM

C=C(OC1C(C)=C2C(C1OC(=O)CCCCCCC)C(C)(OC(C)=O)CC(OC(=O)CCC)C1(O)C2OC(=O)C1(C)O)/C(C)=C/C (stereo not given)
TGI (HOP-18 NSCLC): 9.19 µM
TGI (DMS 273 small cell lung): 0.453 µM
TGI (SN12K1 renal): 0.0786 µM
TGI (XF 498 CNS): 8.97 µM
TGI (P388/ADR leukemia): 1.84 µM
TGI (DMS 114 small cell lung): 0.207 µM

CCCCCCCCCCCCOCCCOP(=O)([O-])OCC[N+](C)(C)C
TGI (HOP-18 NSCLC): > 100 µM
TGI (DMS 273 small cell lung): 35.5 µM
TGI (SN12K1 renal): > 100 µM
TGI (XF 498 CNS): > 89.4 µM
TGI (P388/ADR leukemia): > 100 µM
TGI (MDA-N): 19.3 µM

— PubChem BioAssay (NCI)
